# Data reported in patent US20240398779A1, “USE OF FACTOR B INHIBITORS FOR THE TREATMENT OF AGE-RELATED MACULAR DEGENERATION” (priority 2021, published 2024).
# Key:
# [1] = 39-week dog toxicity study, safety margins for human exposure; conditions: 39-week dog study
# [2] = Clinical phase 2 studies in PNH, IgAN, C3G; type: in vivo, human
# [3] = test system: Bb; assay: Bb level in MAD study; type: in vivo, human; conditions: all iptacopan cohorts
# [4] = First in human study in healthy volunteers, single ascending dose (SAD) and multiple ascending dose (MAD)
# [5] = test system: AP activity; assay: Wieslab AP assay in MAD study; type: in vivo, human; conditions: for inhibition of AP activity (Wieslab AP assay): sustained over 14 days of dosing
structure (smiles),measurement,setting,value
CCO[C@H]1CCN(Cc2c(OC)cc(C)c3[nH]ccc23)[C@H](c2ccc(C(=O)O)cc2)C1 [iptacopan],unbound systemic exposure (AUC-based) at 200 mg b.i.d. below lowest exposure with off-target testicular effects (LOAEL),[1],17.3 fold
same,response rate,"[2]; 200 mg b.i.d., all tested indications (PNH, IgAN, C3G)",highest response rate
same,proteinuria,"[2]; IgAN study Part 1, 200 mg b.i.d., over 90 days",reduce proteinuria
same,Bb level decrease from the baseline,[3],30-40%
same,"deaths, SAEs, or AEs leading to study drug discontinuation","[4]; 102 healthy volunteers, SAD and MAD","No deaths, SAEs, or AEs leading to study drug discontinuation were observed"
same,permeability,[4]; first in human studies,good permeability
same,solubility,[4]; first in human studies,high solubility
same,inhibition of AP activity (Wieslab AP assay),[5]; 100 mg b.i.d.,≥ 80%
same,inhibition of AP activity (Wieslab AP assay),[5]; 200 mg b.i.d.,≥ 80%
same,suppression of AP activity (Wieslab AP assay),"[5]; MAD study, 10 to 200 mg b.i.d. for 2 weeks",dose dependent suppression of AP activity
